According to patent publication US12077503B2, “Substituted cyclic amides and their use as herbicides” (FMC CORPORATION, priority 2015, dated 2024):

Columns and labels:
Assay type in all cases: in vivo
Kochia (Kochia scoparia) [1] = experiment: Test A postemergence; conditions: Bassia scoparia, post-emergence, 240 h, postemergence, read-out: Kochia plant response rating
Method in brief: (§1)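 Preemergence soil spray on seeded pots or post-emergence spray on 1–2 leaf plants, in loam–sand blend. Greenhouse ~10 d. Visual rating 0–100 against untreated plants.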

corn (Zea mays) = experiment: Test A postemergence; conditions: Zea mays, post-emergence, 240 h, postemergence, read-out: Corn plant response rating
Method in brief: as §1

[2] = system: wheat (Triticum aestivum); experiment: Test A postemergence; conditions: Triticum aestivum, post-emergence, 240 h, postemergence, read-out: Wheat plant response rating
Method in brief: as §1

[3] = system: ryegrass, Italian (Italian ryegrass, Lolium multiflorum); experiment: Test A postemergence; conditions: Lolium multiflorum, post-emergence, 240 h, postemergence, read-out: Ryegrass, Italian plant response rating
Method in brief: as §1

[4] = system: Galium (catchweed bedstraw, Galium aparine); experiment: Test A postemergence; conditions: Galium, post-emergence, 240 h, postemergence, read-out: Galium plant response rating
Method in brief: as §1

[5] = system: ragweed (common ragweed, Ambrosia elatior); experiment: Test A postemergence; conditions: Ambrosia artemisiifolia, post-emergence, 240 h, postemergence, read-out: Ragweed plant response rating
Method in brief: as §1

[6] = system: giant foxtail (Setaria faberii); experiment: Test A postemergence; conditions: Setaria faberi, post-emergence, 240 h, postemergence, read-out: Foxtail, Giant plant response rating
Method in brief: as §1

[7] = system: barnyardgrass (Echinochloa crus-galli); experiment: Test A postemergence; conditions: Echinochloa crus-galli, post-emergence, 240 h, postemergence, read-out: Barnyardgrass plant response rating
Method in brief: as §1

[8] = system: pigweed (Amaranthus retroflexus); experiment: Test A postemergence; conditions: Amaranthus retroflexus, post-emergence, 240 h, postemergence, read-out: Pigweed plant response rating
Method in brief: as §1

Kochia (Kochia scoparia) [9] = experiment: Test A preemergence; conditions: Bassia scoparia, pre-emergence, 240 h, preemergence, 0 to 100 scale where 0 is no effect and 100 is complete control, read-out: Kochia plant response rating
Method in brief: as §1

[10] = system: ryegrass, Italian (Italian ryegrass, Lolium multiflorum); experiment: Test A preemergence; conditions: Lolium multiflorum, pre-emergence, 240 h, preemergence, 0 to 100 scale where 0 is no effect and 100 is complete control, read-out: Ryegrass, Italian plant response rating
Method in brief: as §1

[11] = system: ragweed (common ragweed, Ambrosia elatior); experiment: Test A preemergence; conditions: Ambrosia artemisiifolia, pre-emergence, 240 h, preemergence, 0 to 100 scale where 0 is no effect and 100 is complete control, read-out: Ragweed plant response rating
Method in brief: as §1

[12] = system: giant foxtail (Setaria faberii); experiment: Test A preemergence; conditions: Setaria faberi, pre-emergence, 240 h, preemergence, 0 to 100 scale where 0 is no effect and 100 is complete control, read-out: Foxtail, Giant plant response rating
Method in brief: as §1

[13] = system: barnyardgrass (Echinochloa crus-galli); experiment: Test A preemergence; conditions: Echinochloa crus-galli, pre-emergence, 240 h, preemergence, 0 to 100 scale where 0 is no effect and 100 is complete control, read-out: Barnyardgrass plant response rating
Method in brief: as §1

[14] = system: pigweed (Amaranthus retroflexus); experiment: Test A preemergence; conditions: Amaranthus retroflexus, pre-emergence, 240 h, preemergence, 0 to 100 scale where 0 is no effect and 100 is complete control, read-out: Pigweed plant response rating
[15] = 125 g ai/ha, visual injury on 0 to 100 scale (0 no effect, 100 complete control), approx. 10 d
[16] = 500 g ai/ha, 0 to 100 scale, 0 is no effect, 100 is complete control

CC(C)Oc1ccc([C@H]2CNC(=O)[C@@H]2C(=O)Nc2ccc(F)cc2F)cc1 [Compound 1137]
0%: pest or weed control at 125 g/ha (Kochia (Kochia scoparia) [1]; [15]) | pest or weed control at 500 g/ha (Kochia (Kochia scoparia) [1]; [16]) | plant injury at 125 g/ha (corn (Zea mays); [15]) | plant injury at 500 g/ha (corn (Zea mays); [16]) | plant injury at 125 g/ha [2, 15] | plant injury at 500 g/ha [2, 16] | pest or weed control at 125 g/ha [3, 15] | pest or weed control at 500 g/ha [3, 16] | pest or weed control at 125 g/ha [4, 15] | pest or weed control at 500 g/ha [4, 16] | pest or weed control at 125 g/ha [5, 15] | pest or weed control at 500 g/ha [5, 16] | pest or weed control at 125 g/ha [6, 15] | pest or weed control at 500 g/ha [6, 16] | pest or weed control at 125 g/ha [7, 15] | pest or weed control at 500 g/ha [7, 16] | pest or weed control at 125 g/ha [8, 15] | pest or weed control at 500 g/ha [8, 16] | pest or weed control at 125 g/ha (Kochia (Kochia scoparia) [9]; 125 g ai/ha, approx. 10 d) | pest or weed control at 500 g/ha (Kochia (Kochia scoparia) [9]; 500 g ai/ha) | pest or weed control at 125 g/ha ([10]; 125 g ai/ha, approx. 10 d) | pest or weed control at 500 g/ha ([10]; 500 g ai/ha) | pest or weed control at 125 g/ha ([11]; 125 g ai/ha, approx. 10 d) | pest or weed control at 500 g/ha ([11]; 500 g ai/ha) | pest or weed control at 125 g/ha ([12]; 125 g ai/ha, approx. 10 d) | pest or weed control at 500 g/ha ([12]; 500 g ai/ha) | pest or weed control at 125 g/ha ([13]; 125 g ai/ha, approx. 10 d) | pest or weed control at 500 g/ha ([13]; 500 g ai/ha) | pest or weed control at 125 g/ha ([14]; 125 g ai/ha, approx. 10 d) | pest or weed control at 500 g/ha ([14]; 500 g ai/ha)
